Values of other authors as cited in US20090318548A1, “PARA-QUINOL DERIVATIVES AND METHODS OF STEREO SELECTIVELY SYNTHESIZING AND USING SAME” (UNIVERSITY OF NORTHERN BRITISH COLUMBIA, priority 2006, published 2009).

How the values were obtained:
[1] = molecular target: POLO-like kinase 1 (Plk1) enzyme (Homo sapiens, UniProt P53350)
[2] = molecular target: T1, YycG from Staphylococcus aureus (Staphylococcus aureus, UniProt Q2G2U4); details: read-out: IC50, inhibition of YycG
T1 sequence (Q2G2U4 1-608): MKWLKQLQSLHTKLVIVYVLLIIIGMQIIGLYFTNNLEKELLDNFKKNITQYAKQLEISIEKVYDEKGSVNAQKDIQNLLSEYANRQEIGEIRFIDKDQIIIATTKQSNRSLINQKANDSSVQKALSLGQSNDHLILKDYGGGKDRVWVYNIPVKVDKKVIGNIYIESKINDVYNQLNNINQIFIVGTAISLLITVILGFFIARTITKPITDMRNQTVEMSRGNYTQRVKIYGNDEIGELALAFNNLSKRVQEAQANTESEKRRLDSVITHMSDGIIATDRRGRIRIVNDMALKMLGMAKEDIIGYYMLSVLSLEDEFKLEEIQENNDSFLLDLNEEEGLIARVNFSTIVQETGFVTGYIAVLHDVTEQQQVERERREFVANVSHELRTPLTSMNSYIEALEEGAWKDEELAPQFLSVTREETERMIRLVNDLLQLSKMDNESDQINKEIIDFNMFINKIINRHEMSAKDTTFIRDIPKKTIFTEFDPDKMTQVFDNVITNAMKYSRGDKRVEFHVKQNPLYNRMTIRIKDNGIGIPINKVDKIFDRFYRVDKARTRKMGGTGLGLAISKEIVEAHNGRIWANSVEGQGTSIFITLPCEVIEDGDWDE

[3] = molecular target: Bacillus subtilis YycG (Bacillus subtilis, UniProt Q45614); details: for inhibition of Bacillus subtilis YycG (comparative experiments): established antibiotics as comparators
Sequence of Bacillus subtilis YycG (Q45614 whole entry): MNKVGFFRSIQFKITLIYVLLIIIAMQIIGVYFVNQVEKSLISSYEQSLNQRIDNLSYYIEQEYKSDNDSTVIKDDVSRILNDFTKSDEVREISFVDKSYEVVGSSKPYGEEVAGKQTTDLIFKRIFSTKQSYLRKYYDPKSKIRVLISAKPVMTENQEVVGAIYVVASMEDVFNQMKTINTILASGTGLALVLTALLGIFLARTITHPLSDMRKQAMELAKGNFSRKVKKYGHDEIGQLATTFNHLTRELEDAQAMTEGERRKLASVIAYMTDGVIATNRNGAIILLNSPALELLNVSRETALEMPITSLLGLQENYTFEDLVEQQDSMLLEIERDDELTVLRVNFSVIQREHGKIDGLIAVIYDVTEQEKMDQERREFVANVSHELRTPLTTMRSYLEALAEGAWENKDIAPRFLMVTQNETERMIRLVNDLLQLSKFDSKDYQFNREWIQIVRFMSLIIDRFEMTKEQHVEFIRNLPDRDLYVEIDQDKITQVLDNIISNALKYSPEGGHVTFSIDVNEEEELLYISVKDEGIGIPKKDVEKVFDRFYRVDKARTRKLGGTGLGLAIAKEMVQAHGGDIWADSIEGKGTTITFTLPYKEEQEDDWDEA

Sequence of POLO-like kinase 1 (Plk1) enzyme (P53350 whole entry, species assumed): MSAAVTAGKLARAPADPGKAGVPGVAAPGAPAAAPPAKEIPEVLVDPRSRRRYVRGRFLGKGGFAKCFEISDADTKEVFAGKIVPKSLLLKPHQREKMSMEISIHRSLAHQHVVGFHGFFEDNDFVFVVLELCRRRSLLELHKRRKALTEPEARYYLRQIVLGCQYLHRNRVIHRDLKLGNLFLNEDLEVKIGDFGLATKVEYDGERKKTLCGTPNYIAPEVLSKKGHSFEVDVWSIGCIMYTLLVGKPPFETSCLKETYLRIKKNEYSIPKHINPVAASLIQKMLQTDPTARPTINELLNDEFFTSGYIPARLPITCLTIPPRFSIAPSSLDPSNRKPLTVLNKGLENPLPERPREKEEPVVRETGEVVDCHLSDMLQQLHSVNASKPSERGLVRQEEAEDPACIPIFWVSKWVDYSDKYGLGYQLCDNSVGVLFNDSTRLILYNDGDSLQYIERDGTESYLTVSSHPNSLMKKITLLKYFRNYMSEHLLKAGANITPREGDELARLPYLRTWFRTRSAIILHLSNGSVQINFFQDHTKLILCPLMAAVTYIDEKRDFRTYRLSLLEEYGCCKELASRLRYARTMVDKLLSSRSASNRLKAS

## CCCCCCC(C)/C=C(C)/C=C/C(=O)NC1CC2(OC1O)C1OC1C(O)C1OC12 (stereo not drawn) [Aranorosinol A]
[1]
  inhibition of Plk1 enzyme: 118 µM

## CCCCCCC(C)/C=C(C)/C=C/C(=O)N[C@H]1CC2(O[C@H]1O)[C@@H]1O[C@@H]1C(O)(CC(C)=O)[C@@H]1O[C@@H]12 (stereo partly drawn) [Aranorosinol B]
[2]
  IC50: 211 µM
[3]; YycG from Bacillus subtilis, read-out: IC50, inhibition of YycG
  IC50: 223 µM

## NCC[C@H](O)C(=O)N[C@@H]1C[C@H](N)[C@@H](O[C@H]2O[C@H](CN)[C@@H](O)[C@H](O)[C@H]2O)[C@H](O)[C@H]1O[C@H]1O[C@H](CO)[C@@H](O)[C@H](N)[C@H]1O [amikacin]
[3]
  inhibition of Bacillus subtilis YycG (comparative experiments): negligible inhibition

## Cc1nnc(SCC2=C(C(=O)O)N3C(=O)[C@@H](NC(=O)Cn4cnnn4)[C@H]3SC2)s1 [cefazolin]
[3]
  inhibition of Bacillus subtilis YycG (comparative experiments): negligible inhibition

## CC[C@H]1OC(=O)[C@H](C)[C@@H](O[C@H]2C[C@@](C)(OC)[C@@H](O)[C@H](C)O2)[C@H](C)[C@@H](O[C@@H]2O[C@H](C)C[C@H](N(C)C)[C@H]2O)[C@](C)(O)C[C@@H](C)C(=O)[C@H](C)[C@@H](O)[C@]1(C)O [erythromycin]
[3]
  inhibition of Bacillus subtilis YycG (comparative experiments): negligible inhibition
